For one experiment, the target named is T1, KAT6A (Homo sapiens, UniProt Q92794).
T1 construct: Recombinant human His-tagged Kat6a protein (amino acids 194-810); His; made in house; host or cells: Baculovirus-infected Sf9 insect cells
The experiment is described as follows: Kat6a activity assay (TR-FRET, acetylation of biotinylated histone H4 peptide). The experiment is classed as biochemical. Particulars: recombinant human His-tagged Kat6a (amino acids 194-810), 60 mins at 22° C., read-out: KAT6A-DPF/HAT domain IC50 [mol/l] (arithmetic mean). The text has this: Kat6a inhibitory activities of the compounds described in the present invention were quantified using a Fluorescence Resonance Energy Transfer (TR-FRET) assay which measures acetylation of a synthetic, biotinylated Histone-H4-derived peptide by the enzyme.
Recombinant human His-tagged Kat6a protein (amino acids 194-810), was purified in-house from Baculovirus-infected insect cells (Sf9). Histone H4 peptide (amino acids 1-24, […]-VLRD-K(Btn)-amide), which was used as substrate, was synthesized by Biosyntan GmbH, Berlin, Germany. Acetyl Coenzyme A was purchased from Sigma-Aldrich (#A-2056).
Kat6a was incubated for 60 mins at 22° C. in the presence of different concentrations of test substances (0 μM, and within the range 0.01-20 μM) in assay buffer [25 mM Tris/HCl pH 8, 1 mM EGTA, 2.5 mM Glutathion, 0.02% Chicken Albumin, 0.05% Pluronic F127, 25 mM NaCl, 220 nM H4 peptide and 600 nM Acetyl Coenzyme A].
The reaction was stopped by addition of Detection Solution (25 mM HEPES pH 7.5, 0.1% BSA, 22 nM SAXL665 (Cisbio #610SAXLE), 100 μM Anacardic Acid (Enzo #ALX-270-381), 1 nM Anti-Histone H4 (ACETYL K8) Antibody (ABCAM #AB15823) and 0.5 nM Anti-Rabbit IgG Eu (Perkin Elmer #AD0083).
(§1) The fluorescence emission at 620 nm and 665 nm after excitation at 330-350 nm was measured in a TR-FRET measuring instrument, for instance a Rubystar or a Pherastar (both from BMG Lab Technologies, Offenburg, Germany) or a Viewlux (Perkin-Elmer). The ratio of the emission at 665 nm and at […] was used as indicator of the amount of acetylated peptide.
(§2) The resulting data (ratio) were normalized, taking 0% inhibition as the mean value of control measurements where all reagents were included. In this case 50 nl DMSO were used instead of compounds. […] IC50 values were determined by regression analysis based on a 4 parameter equation (minimum, maximum, ICM, Hill; Y=Max+(Min−Max)/(1+(X/ICso) Hill) using the Screener Software (Genedata).
(Time-resolved FRET reads energy transfer from a long-lived donor to a nearby acceptor.)

The target in a further experiment is T2, KAT6B (Homo sapiens, UniProt Q8WYB5).
T2 construct: fused on or other part: N-terminal GST tag
T2 sequence (Q8WYB5 723-2073 limits assumed): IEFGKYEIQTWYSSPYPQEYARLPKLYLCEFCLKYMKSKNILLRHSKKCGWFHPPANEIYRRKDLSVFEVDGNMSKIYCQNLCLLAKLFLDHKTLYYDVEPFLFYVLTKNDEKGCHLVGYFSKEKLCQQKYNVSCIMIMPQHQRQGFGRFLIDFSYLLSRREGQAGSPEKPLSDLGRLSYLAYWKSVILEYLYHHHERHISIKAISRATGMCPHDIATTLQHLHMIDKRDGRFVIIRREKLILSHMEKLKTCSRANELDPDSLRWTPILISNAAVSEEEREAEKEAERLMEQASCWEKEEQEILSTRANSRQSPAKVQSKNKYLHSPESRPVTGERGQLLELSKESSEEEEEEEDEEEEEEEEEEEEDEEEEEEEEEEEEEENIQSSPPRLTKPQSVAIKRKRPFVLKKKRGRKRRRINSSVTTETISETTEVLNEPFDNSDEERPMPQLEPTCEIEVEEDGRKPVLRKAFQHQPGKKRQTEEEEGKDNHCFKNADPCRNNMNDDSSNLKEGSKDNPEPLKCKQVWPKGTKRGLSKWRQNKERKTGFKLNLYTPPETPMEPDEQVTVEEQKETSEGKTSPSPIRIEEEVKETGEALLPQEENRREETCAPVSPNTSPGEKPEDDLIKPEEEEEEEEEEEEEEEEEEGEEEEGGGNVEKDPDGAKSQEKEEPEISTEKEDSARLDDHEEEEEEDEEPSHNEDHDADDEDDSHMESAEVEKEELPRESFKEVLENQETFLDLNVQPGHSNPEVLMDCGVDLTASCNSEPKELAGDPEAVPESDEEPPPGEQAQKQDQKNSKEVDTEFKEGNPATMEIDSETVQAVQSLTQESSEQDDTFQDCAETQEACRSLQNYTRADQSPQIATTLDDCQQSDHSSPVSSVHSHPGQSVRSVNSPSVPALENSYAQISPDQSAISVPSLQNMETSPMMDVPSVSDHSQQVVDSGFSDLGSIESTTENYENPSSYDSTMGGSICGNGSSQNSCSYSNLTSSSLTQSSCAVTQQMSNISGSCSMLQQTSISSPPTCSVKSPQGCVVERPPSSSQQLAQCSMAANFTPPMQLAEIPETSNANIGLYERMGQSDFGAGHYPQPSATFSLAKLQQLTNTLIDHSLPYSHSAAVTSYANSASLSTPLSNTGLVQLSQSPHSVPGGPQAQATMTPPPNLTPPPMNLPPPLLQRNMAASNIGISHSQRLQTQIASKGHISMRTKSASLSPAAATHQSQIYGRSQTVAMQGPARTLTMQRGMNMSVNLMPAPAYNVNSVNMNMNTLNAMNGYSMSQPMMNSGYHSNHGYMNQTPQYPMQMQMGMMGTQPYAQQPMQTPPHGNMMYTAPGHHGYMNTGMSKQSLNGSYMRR
As to the kind of experiment: Kat6b activity assay (TR-FRET, acetylation of biotinylated histone H4 peptide). The experiment is classed as biochemical. Particulars: recombinant human GST-tagged Kat6b (431-end), 30 mins at 22° C., read-out: KAT6B activity assay IC50 [mol/l] (arithmetic mean).
From the text: Kat6b inhibitory activities of the compounds described in the present invention were quantified using a Fluorescence Resonance Energy Transfer (TR-FRET) assay which measures acetylation of a synthetic, biotinylated Histone-H4-derived peptide by the enzyme.
Recombinant human GST-tagged Kat6b protein (431-end, N-terminal GST-tag), purified from Baculovirus-infected insect cells (Sf9), was purchased from SignalChem (#K315-381BG). Histone H4 peptide (amino acids 1-24, […]-VLRD-K(Btn)-amide), which was used as substrate, was synthesized by Biosyntan GmbH, Berlin, Germany. Acetyl Coenzyme A was purchased from Sigma-Aldrich (#A-2056).
Kat6b was incubated for 30 mins at 22° C. in the presence of different concentrations of test substances (0 μM, and within the range 0.01-20 μM) in assay buffer [25 mM Tris/HCl pH 8, 1 mM EGTA, 2.5 mM Glutathion, 0.02% Chicken Albumin, 0.05% Pluronic F127, 25 mM NaCl, 500 nM H4 peptide and 600 nM Acetyl Coenzyme A].
The reaction was stopped by addition of Detection Solution (25 mM HEPES pH 7.5, 0.1% BSA, 22 nM SAXL665 (Cisbio #610SAXLE), 100 μM Anacardic Acid (Enzo #ALX-270-381), 1 nM Anti-Histone H4 (ACETYL K8) Antibody (ABCAM #AB15823), 0.5 nM Anti-Rabbit IgG Eu (Perkin Elmer #AD0083).
as §1, §2

In experiment [1] the test system is ESR1 transcription in MVLN cells. The experiment is described as follows: Repression of ESR1 transcription, MVLN luciferase reporter assay. The experiment is classed as cell-based. Particulars: Homo sapiens, luciferase signal after 24 h, read-out: MVLN reporter assay, IC50[M] (arithmetic mean). The text has this:
KAT6A controls transcription of the ESR1 gene in breast cancer cells. Compound treatment that interferes with this mechanism was quantified using MVLN cells. These cells constitutively express the ER and are stably transfected with the luciferase (LUC) reporter gene and the corresponding hormone responsive element derived from the 5′-flanking region of the Xenopus Vitellogenin A2 gene (Pons et al., 1990, Demirpense et al., 1993, Joyeux et al., 1993). The repressive effect on ERα transcription activity of a test chemical is directly related to the luciferase measured in the lysate of treated MVLN cells.
Each sample was prepared as duplicate and rim wells were excluded. For luciferase signal determination 100 μl of a 1:1 mixture of Steadylite plus (Perkin Elmer; 6016759) and assay medium was added after 24 h for 15 minutes and measured in Victor X3 (Perkin Elmer). To exclude any effects caused by cell loss during the treatment, cell density was determined using Alamar Blue (Invitrogen; DAL1100). Prior to the luciferase measurement 10 μl Alamar Blue were added to each well and the plates were incubated for 2 h in the incubator. Then fluorescence was measured with Victor X3 (Perkin Elmer) at 530 nm/590 nm.
In general terms: In a reporter assay the amount or activity of a reporter protein is the signal.

A further experiment relates to ZR-75-1 cells. As to the kind of experiment: Proliferation assay in ZR-75-1 cells. Format: cell-based. Particulars: Homo sapiens, 144 h, Alamar Blue, read-out: ZR75-1 proliferation assay, EC50[M] (arithmetic mean). The text has this: (§3) For compound characterization cell survival assays were routinely run in two cell lines. ZR-75-1 is a breast carcinoma cell line containing a focal KAT6A amplification and high KAT6A protein expression. Proliferation of this cell line is inhibited upon treatment with KAT6A inhibitors. As a negative control cell line MDA-MB-436 were used. These cells carry a […] deletion of the KAT6A gene, have a low KAT6A protein expression and are not growth inhibited upon treatment with KAT6A inhibitors.
(§4) For measurements cell lines were plated at the below indicated concentration per […] in 96-well plates in a humidified incubator at 37° C. and 5% CO2.
(§5) ZR-75-1 (ATCC, CRL-1500; breast carcinoma); 3000 cells per well; culture medium: RPMI 1640 (Biochrom #FG 1215) medium containing 2.5% FBS (Biochrom #S0615). LCLC-97TM1 (DSMZ, ACC 388; large cell lung carcinoma); 6000 cells per well; culture medium: RPMI 1640 (Biochrom #FG 1215) medium containing 2.5% FBS (Biochrom #S0615). MDA-MB-436 (CLS, 300278; breast adenocarcinoma); 3000 cells per well; culture medium: DMEM/Ham's F12 (Biochrom #FG 4815) medium containing 2.5% FBS (Biochrom #S0615).
(§6) Each sample was prepared as triplicate and rim wells were excluded. Plates were incubated at 37° C. and 5% CO2 for 144 h. Cell viability was measured by adding 10 μL of Alamar Blue Reagent (Invitrogen #DAL 1100) and plates were incubated for 2 h at 37° C. and 5% CO2. Fluorescence was measured at 590 nm wavelength with a Tecan Spark or Victor X3 MTP-Reader (PerkinElmer).
On the technique in general: Alamar Blue is a resazurin reagent that responds to reducing activity.

A further experiment has as its system LCLC-97TM1 cells. The experiment is described as follows: Proliferation assay in LCLC-97TM1 cells. Particulars: Homo sapiens, 144 h, Alamar Blue, read-out: LCLC97TM1 proliferation assay, EC50[M] (arithmetic mean). Format: cell-based. As for the experimental part:
as §4, §5, §6

A further experiment concerns MDA-MB-436 cells. The experiment is described as follows: Proliferation assay in MDA-MB-436 cells (negative control cell line). Particulars: Homo sapiens, 144 h, Alamar Blue, read-out: MDA-MB-436 proliferation assay, EC50[M] (arithmetic mean). The experiment is classed as cell-based.
From the text: as §3, §4, §5, §6

Structures are written as SMILES. pIC50: −log10 of the molar value.

T1 sequence (Q92794 194-810): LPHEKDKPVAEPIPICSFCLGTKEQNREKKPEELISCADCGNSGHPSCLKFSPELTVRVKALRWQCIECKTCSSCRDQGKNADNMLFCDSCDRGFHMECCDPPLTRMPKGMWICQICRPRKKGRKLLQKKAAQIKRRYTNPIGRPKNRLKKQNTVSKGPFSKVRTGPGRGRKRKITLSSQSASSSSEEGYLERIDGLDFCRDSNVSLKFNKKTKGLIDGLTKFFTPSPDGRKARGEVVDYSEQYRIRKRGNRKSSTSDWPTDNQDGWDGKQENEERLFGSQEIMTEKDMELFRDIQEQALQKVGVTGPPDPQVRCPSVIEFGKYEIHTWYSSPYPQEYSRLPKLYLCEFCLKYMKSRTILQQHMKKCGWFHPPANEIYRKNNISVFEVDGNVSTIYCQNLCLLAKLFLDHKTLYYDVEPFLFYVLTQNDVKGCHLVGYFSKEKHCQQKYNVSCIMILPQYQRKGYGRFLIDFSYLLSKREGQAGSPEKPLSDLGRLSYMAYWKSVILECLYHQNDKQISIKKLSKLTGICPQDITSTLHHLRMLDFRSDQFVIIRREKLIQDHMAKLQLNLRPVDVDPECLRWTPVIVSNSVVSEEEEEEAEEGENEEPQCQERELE

One may read the IC50 as the point on the concentration scale where inhibition reaches its midpoint. In the case of `O=C(NS(=O)(=O)c1ccccc1-c1ccccc1)c1cc2ccc(-c3ccc(F)cc3)cc2o1` [Example 1, N-([1,1′-biphenyl]-2-sulfonyl)-6-(4-fluorophenyl)-1-benzofuran-2-carboxamide], the pIC50 is 5.47 on KAT6A and 5.32 at KAT6B. Also, the IC50 in experiment [1] was 1.31e-05 M.
`Cc1ccc2cccc(S(=O)(=O)NC(=O)c3cc4c(F)cc(C5CC5)cc4o3)c2n1` [Example 22, 6-Cyclopropyl-4-fluoro-N-(2-methylquinoline-8-sulfonyl)-1-benzofuran-2-carboxamide]: the pIC50 at KAT6A is 8.02; at KAT6B, 7.65. Further, in experiment [1], the IC50 was 2.81e-07 M. Besides, the EC50 in the experiment on ZR-75-1 cells amounted to 1.26e-06 M.
Regarding `COCCc1ccc2cc(C(=O)NS(=O)(=O)c3ccccc3-c3ccccc3)oc2c1` [Example 26, N-([1,1′-biphenyl]-2-sulfonyl)-6-(2-methoxyethyl)-1-benzofuran-2-carboxamide], the results for the pIC50 at KAT6A and on KAT6B were 5.95 and 5.55, respectively. The IC50 in experiment [1] was found to be 1.56e-05 M.
`O=C(NS(=O)(=O)c1ccccc1-c1ccccc1)c1cc2c(F)cc(C3CC3)cc2o1` [Example 38, 6-Cyclopropyl-4-fluoro-N-(2-phenylphenyl)sulfonyl-benzofuran-2-carboxamide]: the pIC50 on KAT6A is 7.76. For the same compound, in experiment [1], the IC50 turned out to be 1e-06 M. Besides, the results for the EC50 in the experiment with ZR-75-1 cells, with LCLC-97TM1 cells and in the experiment on MDA-MB-436 cells were 9.57e-07 M, 3.21e-06 M and greater than 2e-05 M, respectively.
Taken in the same sequence, the figures for `O=C(NS(=O)(=O)c1ccccc1)c1cc2c(F)cc(C3CC3)cc2o1` [Example 39, N-(Benzenesulfonyl)-6-cyclopropyl-4-fluoro-benzofuran-2-carboxamide] were 7.15, 4.57e-06 M, 3.21e-06 M, greater than 2e-05 M and greater than 2e-05 M.
For the compound `CN(C)c1cc(C2CC2)cc2oc(C(=O)NS(=O)(=O)c3ccccc3)cc12` [Example 42, N-(Benzenesulfonyl)-6-cyclopropyl-4-(dimethylamino)benzofuran-2-carboxamide], the pIC50 on KAT6A is 6.38. For the same compound, the half-inhibitory concentration (IC50) in experiment [1] is greater than 2e-05 M. In addition, the EC50 in the experiment on ZR-75-1 cells, in the experiment on LCLC-97TM1 cells and in the experiment with MDA-MB-436 cells was greater than 2e-05 M each time.
Consider `Cc1ccc2cccc(S(=O)(=O)NC(=O)c3cc4c(N(C)C)cc(C5CC5)cc4o3)c2n1` [Example 43, 6-Cyclopropyl-4-(dimethylamino)-N-[(2-methyl-8-quinolyl)sulfonyl]benzofuran-2-carboxamide], for which the pIC50 on KAT6A was 7.89. Also, the half-maximal inhibitory concentration (IC50) in experiment [1] was found to be 6.92e-06 M. Besides, the EC50 with ZR-75-1 cells is 5.64e-06 M; in the experiment with LCLC-97TM1 cells, greater than 2e-05 M; in the experiment on MDA-MB-436 cells it was greater than 2e-05 M.
Regarding `CN(C)c1cc(C2CC2)cc2oc(C(=O)NS(=O)(=O)c3ccccc3-c3ccccc3)cc12` [Example 44, 6-Cyclopropyl-4-(dimethylamino)-N-(2-phenylphenyl)sulfonyl-benzofuran-2-carboxamide], the pIC50 at KAT6A is 7.28. Besides, the IC50 in experiment [1] came to 1.16e-05 M. Moreover, the EC50 in the experiment with ZR-75-1 cells is 8.67e-06 M; in the experiment on LCLC-97TM1 cells, greater than 2e-05 M; in the experiment with MDA-MB-436 cells, greater than 2e-05 M.
As for `CCOc1ccccc1S(=O)(=O)NC(=O)c1cc2c(N(C)C)cc(C3CC3)cc2o1` [Example 45, 6-Cyclopropyl-4-(dimethylamino)-N-(2-ethoxyphenyl)sulfonyl-benzofuran-2-carboxamide], the pIC50 on KAT6A was 7.10. Besides, the IC50 in experiment [1] was 1.68e-05 M. Moreover, the EC50 in the experiment with ZR-75-1 cells, with LCLC-97TM1 cells and in the experiment with MDA-MB-436 cells was greater than 2e-05 M in each case.
Regarding `Cc1ccc2cccc(S(=O)(=O)NC(=O)c3cc4c(OC(F)F)cc(C5CC5)cc4o3)c2n1` [Example 47, 6-Cyclopropyl-4-(difluoromethoxy)-N-[(2-methyl-8-quinolyl)sulfonyl]benzofuran-2-carboxamide], the pIC50 on KAT6A is 8.32. The IC50 in experiment [1] stood at 4.65e-06 M. The EC50 is 3.24e-06 M in the experiment with ZR-75-1 cells, greater than 2e-05 M in the experiment on LCLC-97TM1 cells and greater than 2e-05 M with MDA-MB-436 cells.
Take `Cc1ccc2cccc(S(=O)(=O)NC(=O)c3cc4c(C(F)(F)F)cc(C5CC5)cc4o3)c2n1` [Example 50, 6-Cyclopropyl-N-[(2-methyl-8-quinolyl)sulfonyl]-4-(trifluoromethyl)benzofuran-2-carboximide]: the pIC50 at KAT6A was 8.26. The half-inhibitory concentration (IC50) in experiment [1] came to 1.95e-06 M. Moreover, the EC50 in the experiment with ZR-75-1 cells is 1.38e-05 M; in the experiment on LCLC-97TM1 cells, greater than 2e-05 M; in the experiment on MDA-MB-436 cells it was greater than 2e-05 M.
Regarding `COc1ccc(C(C)(C)C)cc1S(=O)(=O)NC(=O)c1cc2c(F)cc(C3CC3)cc2o1` [Example 66, N-((5-(tert-butyl)-2-methoxyphenyl)sulfonyl)-6-cyclopropyl-4-fluorobenzofuran-2-carboxamide], on KAT6A, the pIC50 is 8.48. In addition, in experiment [1], the IC50 came out at 4.96e-08 M. For the same compound, the EC50 with ZR-75-1 cells was 1.76e-07 M; with LCLC-97TM1 cells, 2.64e-07 M; in the experiment with MDA-MB-436 cells it was greater than 2e-05 M.

These data come from US20240287048A1, “SUBSTITUTED ACYL SULFONAMIDES FOR TREATING CANCER” (The Broad Institute, Inc., priority 2020, published 2024).
